Experimental data published in US20260076939A1, “CHIRAL GAMMA LACTAM DERIVATIVE OR PHARMACEUTICALLY ACCEPTABLE SALT THEREOF, AND PREPARATION METHOD THEREFOR” (Korea University Research and Business Foundation, priority 2022, published 2026).
Counter-ions that a name gives are not always drawn.

Key:
GDF-8/Myostatin [1] = assay: Expression of the sarcopenia-related marker GDF-8/Myostatin in mouse serum; assay type: in vivo; conditions: MPTP mice, 15 mg/kg ip twice a week for 5 weeks, FIG. 11; for expression level of GDF-8/Myostatin in mouse serum: compared to IGF-1 and (R)-phenylpiracetam treatment groups
Experimental: MPTP was injected intraperitoneally into the mouse at a concentration of 30 mg/kg for 5 consecutive days. One week after the MPTP was injected, the chiral gamma-lactam derivative of the present disclosure or a pharmaceutically acceptable salt thereof (Ph-10, 20, 30) was administered intraperitoneally to the mouse at a concentration of 15 mg/kg twice a week, for 5 weeks, and the changes in the expression level of GDF-8/Myostatine, a sarcopenia-related marker in mouse serum, were determined.

[2] = test system: Parkinson's disease mouse MPTP model; assay: Rotarod test (latency to fall), 5 weeks; assay type: in vivo; conditions: MPTP mice; for motility in the rotarod test (latency to fall): compared to the control group and the MPTP alone treatment group, FIG. 9(a)
Experimental: (§1) Six-month-old normal mice were acclimated for one week, trained for behavioral testing, and then randomly divided into groups. To construct a Parkinson's disease mouse MPTP model, mice were treated with the chiral gamma-lactam derivative of the present disclosure or a pharmaceutically acceptable salt thereof (dissolved in 0.9% saline, intraperitoneally injected (ip)) for 3 days, and then were treated with MPTP (dissolved in 0.9% saline, ip) for 5 consecutive days. […] For the control mice group, the same volume of saline solution (ip) was provided. Two days after the last injection, the efficacy was confirmed by an open field test (OFT), forced swim test (FST), rotarod test, and pilocarpine-induced seizure evaluation.
(§2) To evaluate the walking and motor abilities of the lower extremities of mice, a rotarod test was performed for 5 weeks. Motor coordination and balance were assessed by placing the mice on a rotating bar and measuring the time until they fell therefrom (latency to fall). MPTP was injected intraperitoneally into the mice at a concentration of 30 mg/kg for 5 consecutive days. One week after the MPTP was injected, MPTP was administered to the mice intraperitoneally (15 mg/kg) twice a week. The rotarod consists of a rotatable cylindrical rod with a diameter of 7 cm, located at a height of 60 cm and six baffles spaced at 15 cm intervals. Then, mice were placed on the rod while the rod was rotated for 180 seconds at a speed of 5 to 50 rpm (maximum speed) and the latency to fall was measured. At this time, the mice were sufficiently trained to be acclimated during the experimental period.

SMAD3 = assay: Human skeletal myoblast (HSKM) differentiation induction test, ELISA: SMAD3; assay type: cell-based; conditions: compared to (R)-phenylpiracetam treatment group, FIG. 5(b)
Experimental: (§3) For the human skeletal myoblast (HSKM) differentiation induction test, human skeletal myoblasts (3×10^5 cells/well) were prepared in 24-well plates. Then, these cells were treated with the test substances and incubated in a 37° C., CO2 incubator for 48 hours. After 24 and 48 hours of incubation, the cell culture supernatant was collected into an E-tube and stored in a deep freezer. For ELISA analysis, the supernatant was thawed and prepared. ELISA analysis was performed based on the test method presented in the ELISA kit.

SMAD2 = assay: Human skeletal myoblast (HSKM) differentiation induction test, ELISA: SMAD2; assay type: cell-based; conditions: compared to (R)-phenylpiracetam treatment group, FIG. 5(a)
Experimental: as §3

GDF-8/Myostatin [3] = assay: Human skeletal myoblast (HSKM) differentiation induction test, ELISA of culture supernatant: GDF-8/Myostatin; assay type: cell-based; conditions: compared to IGF-1 and (R)-phenylpiracetam treatment groups, FIG. 4
Experimental: as §3

HEK293T cell line = assay: Intracellular Ca2+ concentration by confocal laser scanning microscopy (CLSM), Fluo-3-AM; assay type: cell-based, human; conditions: HEK293T cells; for Ca2+ release performance: compared to the control rasagiline and the comparator (R)-phenylpiracetam, FIGS. 2 and 3
Experimental: To detect intracellular Ca^2+ levels, the HEK293T cell line, human renal epithelial cells, were seeded in 35 mm diameter confocal dishes 24 hours before the experiment and then were cultured to 40-60% confluency. The cells were loaded with […] fluorescent […] calcium indicator Fluo-3-acetoxymethyl (Fluo-3-AM; Invitrogen) for 30 min at 37° C. The concentration of Ca^2+ was determined using CLSM (Zeiss LSM 700 Meta; Zeiss, Oberkochen, Germany). […] The excitation and emission wavelengths for signal detection were 488 nm and 515 nm, respectively. Analysis of intracellular calcium intensity was performed using Zen software (Carl Zeiss).

[4] = test system: Parkinson's disease mouse MPTP model; assay: Forced swim test (FST); assay type: in vivo; conditions: MPTP mice, FIG. 8; for immobility time in the forced swim test: ip 30 minutes before the test, compared to the MPTP alone treatment group
Experimental: as §1
The forced swim test (FST) was performed to induce depressive behavior in mice. (1) First, a 2 L beaker was filled with water (25±1° C.) until the water was about 10 cm deep, and the mouse was allowed to swim. The mouse was returned to the breeding cage after 6 minutes. (2) The restraint stress group was confined in a restraint tube for 90 minutes until 60 minutes before the forced swim test was to be performed, and then the mouse was allowed to swim as mentioned in (1). Thereafter, the mouse was returned to the breeding cage. (3) In this case, the chiral gamma-lactam derivative of the present disclosure or a pharmaceutically acceptable salt thereof (saline, test drug) was injected into the abdominal cavity 30 minutes before the forced swim test was performed. Immobility time was measured for 4 minutes out of the 6 minutes and these measurements were compared between groups.

[5] = test system: pilocarpine-induced seizure mouse model; assay: Evaluation of pilocarpine-induced seizures; assay type: in vivo; conditions: male C57BL/6J mice, 15 mg ip 25 minutes before pilocarpine 330 mg/kg, monitored for 24 hours; compared to the control group; FIG. 10
Experimental: A pilocarpine-induced seizure mouse model was created to study changes in brain activity. Pilocarpine is an agonist that binds to muscarinic cholinergic receptors in nerve cells and increases cell activity, and is used to create a mesial temporal lobe epilepsy model.
The present experiment was performed on surgically operated-on male C57BL/6J mice under a constant environmental condition (24-25° C., 50-60% humidity, 12-hour light/dark cycle). […] Pilocarpine (Sigma, Deisenhofen, Germany) was injected intraperitoneally into the mouse at a single dose of 330 mg/kg, and behavioral and electrophysiological seizure patterns were monitored for 24 hours. […]
The seizure patterns were divided into the following five types, and cases (4) and (5) were defined as convulsive seizures and analyzed for their frequency and duration: (0) no convulsive behavior; (1) facial clonus; (2) head nodding; (3) forelimb clonus; (4) rearing: animal in a standing posture aided by tail and the laterally spread hindlimbs showing increased tone; (5) rearing and falling back.

[6] = test system: Parkinson's disease mouse MPTP model; assay: Open field test (OFT); assay type: in vivo, mice; conditions: for total distance moved in the open field test: 10 mg/kg, compared to (R)-phenylpiracetam, MPTP alone and Selegiline treatment groups
Experimental: as §1
To measure general motor activity levels and behavioral anxiety of the mice, an open field test was performed. (1) First, 30 minutes before performing the open field test, the chiral gamma-lactam derivative of the present disclosure or a pharmaceutically acceptable salt thereof and a vehicle (saline, test drug) were injected intraperitoneally to the mice and their behavior was video recorded for 10 minutes. (2) Video analysis was used to check for sedation and measure the distance the mice moved.

SYP (synaptophysin) = assay: mRNA expression by real-time PCR in MPTP-treated SH-SY5Y cells: SYP; assay type: cell-based, human; conditions: 2.5 mM MPTP, compared to MPTP alone, FIG. 6(a)
Experimental: (§4) After inducing an inflammatory response by treating a human neuroblastoma SH-SY5Y cell line with 2.5 mM MPTP (1-methyl-4-phenyl-1,2,3,6-tetrahydropyridine), the mRNA expression of SYP (synaptophysin), GAP-43 (Growth-associated protein-43), MAO-B (Monoamine oxidase-B), and iNOS (inducible nitric oxide synthase) was confirmed by real-time PCR.

[7] = test system: tibialis anterior (TA) and extensor digitorum longus (EDL) muscle; assay: Muscle weight after the five-week rotarod test; assay type: in vivo; conditions: MPTP mice, after five weeks; for tibialis anterior (TA) muscle weight: FIG. 9(b); for extensor digitorum longus (EDL) muscle weight: FIG. 9(c)
Experimental: as §2

[8] = test system: iNOS (inducible nitric oxide synthase); assay: mRNA expression by real-time PCR in MPTP-treated SH-SY5Y cells: iNOS; assay type: cell-based, human; conditions: 2.5 mM MPTP, compared to MPTP alone, FIG. 6(a)
Experimental: as §4

[9] = test system: MAO-B (Monoamine oxidase-B); assay: mRNA expression by real-time PCR in MPTP-treated SH-SY5Y cells: MAO-B; assay type: cell-based, human; conditions: 2.5 mM MPTP, compared to MPTP alone, FIG. 6(a)
Experimental: as §4

[10] = test system: human neuroblastoma SH-SY5Y cell line; assay: Fluorescence microscopy of Ca2+ and superoxide anions in MPTP-treated SH-SY5Y cells; assay type: cell-based; conditions: SH-SY5Y after the MPTP treatment; FIG. 6(b)
[11] = test system: GAP-43 (Growth-associated protein-43); assay: mRNA expression by real-time PCR in MPTP-treated SH-SY5Y cells: GAP-43; assay type: cell-based, human; conditions: 2.5 mM MPTP, compared to MPTP alone, FIG. 6(a)
Experimental: as §4

Structure (SMILES): Cl.NC(=O)CN1C[C@H](c2ccccc2)CC1=O [Ph-20, (S)-2-(2-oxo-4-phenylpyrrolidin-1-yl)acetamide hydrochloride]
- expression level of GDF-8/Myostatin in mouse serum (GDF-8/Myostatin [1]): relatively lower
- motility in the rotarod test (latency to fall) [2]: motility was increased
- SMAD3 level (SMAD3): effective performance
- SMAD2 level (SMAD2): effective performance
- GDF-8/Myostatin level (GDF-8/Myostatin [3]): performed equally or better
- Ca2+ release performance (HEK293T cell line): far superior
- immobility time in the forced swim test [4]: much shorter
- total number of convulsive seizures [5]: effectively reduced
- total distance moved in the open field test ([6]; MPTP mice, ip, FIG. 7(b)): increased
- mRNA expression of SYP (SYP (synaptophysin)): significantly increased
- tibialis anterior (TA) muscle weight [7]: increased by statistically significant levels
- extensor digitorum longus (EDL) muscle weight [7]: increased by statistically significant levels

Structure (SMILES): NC(=O)CN1C[C@@H](c2ccccc2)CC1=O [phenylpiracetam, (R)-phenylpiracetam, reference compound]
- immobility time in the forced swim test [4]: reduced immobility time

Structure (SMILES): Cl.NC(=O)CN1C[C@@H](c2ccccc2)CC1=O [Ph-30, (R)-2-(2-oxo-4-phenylpyrrolidin-1-yl)acetamide hydrochloride]
- expression level of GDF-8/Myostatin in mouse serum, comparison among the Ph compounds (chirality) (GDF-8/Myostatin [1]): lowest expression levels
- expression level of GDF-8/Myostatin in mouse serum (GDF-8/Myostatin [1]): relatively lower
- efficacy in the rotarod test compared to the Ph-20 compound ([2]; FIG. 9): approximately twice the efficacy
- motility in the rotarod test (latency to fall) [2]: motility was increased
- SMAD3 level (SMAD3): lowered the SMAD2 and SMAD3 levels the most
- mRNA expression of iNOS [8]: significantly reduced
- mRNA expression of MAO-B [9]: significantly reduced
- SMAD2 level (SMAD2): lowered the SMAD2 and SMAD3 levels the most
- GDF-8/Myostatin level (GDF-8/Myostatin [3]): reduced GDF-8/Myostatin level the most
- calcium release performance difference, (R)-type Ph-30 compared to (S)-type Ph-20 (HEK293T cell line): ≥ 2 times
- time at which the intensity of intracellular calcium was highest (HEK293T cell line; CLSM, FIG. 1 (Ph-30)): 18 s
- Ca2+ release performance (HEK293T cell line): far superior
- immobility time in the forced swim test [4]: much shorter
- immobility time in the forced swim test compared to the untreated control group (saline) [4]: lower immobility time than the untreated control group
- total number of convulsive seizures [5]: significantly lower
- Ca2+ (fluorescence microscopy) [10]: significantly increased
- superoxide anions (fluorescence microscopy) [10]: significantly reduced
- total distance moved in the open field test ([6]; MPTP mice, ip, FIG. 7(b)): increased
- total distance moved relative to the MPTP alone treatment group ([6]; MPTP mice, ip, FIG. 7(b)): approximately three times higher
- distance moved in the open field test ([6]; mice, ip, 5, 10 and 15 mg/kg, compared to the control group, FIG. 7(a)): increased compared to the control group at all concentrations
- mRNA expression of SYP (SYP (synaptophysin)): significantly increased
- tibialis anterior (TA) muscle weight [7]: increased by statistically significant levels
- extensor digitorum longus (EDL) muscle weight [7]: increased by statistically significant levels

Structure (SMILES): NNC(=O)CN1C[C@@H](c2ccccc2)CC1=O [Ph-10, (R)-2-(2-oxo-4-phenylpyrrolidin-1-yl)acetohydrazide hydrochloride]
- expression level of GDF-8/Myostatin in mouse serum (GDF-8/Myostatin [1]): relatively lower
- mRNA expression of GAP-43 [11]: significantly increased
- motility in the rotarod test (latency to fall) [2]: motility was increased
- SMAD3 level (SMAD3): effective performance
- mRNA expression of iNOS [8]: significantly reduced
- mRNA expression of MAO-B [9]: significantly reduced
- SMAD2 level (SMAD2): effective performance
- GDF-8/Myostatin level (GDF-8/Myostatin [3]): performed equally or better
- Ca2+ release performance (HEK293T cell line): far superior
- immobility time in the forced swim test [4]: much shorter
- total distance moved in the open field test ([6]; MPTP mice, ip, FIG. 7(b)): increased
- mRNA expression of SYP (SYP (synaptophysin)): significantly increased
- tibialis anterior (TA) muscle weight [7]: increased by statistically significant levels
- extensor digitorum longus (EDL) muscle weight [7]: increased by statistically significant levels
